The test system of this data set is human subjects. In words: Phase I single-blind study: single increasing oral doses of pyridostigmine bromide with or without ondansetron, gastro-intestinal tolerability. It is filed as in vivo. The conditions noted are these: healthy volunteers, one value per subject; for FID-1 Dose Limiting Adverse Event: pyridostigmine alone, oral. The method, then:
A Phase I study was conducted in human subjects receiving a single oral dose of pyridostigmine bromide with or without a single oral dose of ondansetron hydrochloride dihydrate (“ondansetron”), as a representative 5HT3-antagonist. The study was a single center, single-blind study.
Following enrollment in the study, participants received single increasing oral doses of pyridostigmine, given once daily in the morning. The starting dose of pyridostigmine was 30 mg and the dose was increased daily by 30 mg increments. Once a subject had reached his/her first intolerable dose (“FID-1”), upward dose escalation was discontinued. FID was defined as: • (a) One (1) episode of vomiting, or • (b) Two (2) episodes of retching, or • (c) One (1) episode of severe nausea (Grade 3; defined as nausea interfering with activities of daily living or inadequate oral caloric or fluid intake; tube feeding, total parenteral nutrition or hospitalization indicated) lasting more than 1 hour, or • (d) Three (3) consecutive episodes at every 4-hour ratings of moderate nausea (Grade 2; defined as subjectively symptomatic, but not interfering with activities of daily living), or • (e) One (1) episode of moderate diarrhea (Grade 2; defined as 4-6 stools more than at baseline).
When a subject reached FID-1 on pyridostigmine alone, the subject was washed out for 2 to 7 days, and then received single daily doses of pyridostigmine starting at 30 mg and titrated upward by 30 mg increments, together with oral ondansetron hydrochloride dihydrate (10 mg, equivalent to 8 mg ondansetron base) until subjects again reached an intolerable dose (FID-2).
On each study day, subjects were followed up for up to 8 hours following drug administration for AEs, vital signs, ECGs. In addition, a laboratory panel was taken at screening and at the end of the study.

Values joined by “and” are separate entries in the source; they are usually repeats but may differ in a detail not shown here. Equal entries are not always repeated.

On to `CN(C)C(=O)Oc1ccc[n+](C)c1` [Pyridostigmine, Pyridostigmine bromide], for which the “FID-1 Dose Limiting Adverse Event” value was “Vomiting”. Besides, the “FID-1 (Pyridostigmine alone)” value (first intolerable dose, single oral daily doses from 30 mg, raised by 30 mg increments) is 60 mg (2×) and 90 mg. Where the note is “maximum tolerated single oral dose”, the “MTD-1 (Pyridostigmine alone)” value is 30 mg and 60 mg. Besides, for the setting “listed as pyridostigmine”, the “FID-1 Dose Limiting Adverse Event” value is reported as “vomiting”.
